The results in this text go back to patent publication US11098055B2, “Ester ACC inhibitors and uses thereof” (Gilead Apollo, LLC, priority 2015, dated 2021).

Each structure is given as a SMILES string. pIC50: −log10 of the molar value. In brackets after ≈: the same amount, converted by molar mass.

For one experiment, the system named is C. krusei ATCC 6258. In words: Anti-Fungal (Candida) Activity Assay, broth microtiter MIC. The settings on record: Pichia kudriavzevii, ATCC6258, 48 h, Table 3b (additional results); 3 replicates; MIC read at 48 h. Format: cell-based, Candida krusei. A digest of the protocol:
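Broth microdilution per CLSI M27-A3 in RPMI 1640 + MOPS, at a final inoculum of 2.5×10^3 CFU/mL. Compound DMSO stocks were diluted in water to a 128 μg/mL working solution. MIC was read visually against the growth control at 48 h.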

The next experiment concerns the target hACC2 (Homo sapiens, UniProt O00763). Description: In vitro ACC2 inhibition assay (ADP-Glo), human ACC2. Format: biochemical. Particulars: Table 2b (additional results). The method in brief: (§1)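 ADP-Glo luminescent ADP detection with 5 nM ACC2, 20 μM ATP, 20 μM acetyl-CoA, 12 mM NaHCO3, 2 mM DTT, 5% DMSO; compound (30 μM-0.00051 μM, 11 points) preincubated 15 min, reaction 60 min at room temperature. Percent inhibition against DMSO and positive controls; IC50 by four-parameter nonlinear fit.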
(ADP-Glo first removes unused ATP, then detects ADP through luciferase.)

Another experiment concerns the target fACC2 (UniProt Q00955). Description: In vitro ACC2 inhibition assay (ADP-Glo), fungal ACC2. The settings on record: Table 2b (additional results). Type of experiment: biochemical. A digest of the protocol: as §1

fACC2, sequence (Q00955 whole entry): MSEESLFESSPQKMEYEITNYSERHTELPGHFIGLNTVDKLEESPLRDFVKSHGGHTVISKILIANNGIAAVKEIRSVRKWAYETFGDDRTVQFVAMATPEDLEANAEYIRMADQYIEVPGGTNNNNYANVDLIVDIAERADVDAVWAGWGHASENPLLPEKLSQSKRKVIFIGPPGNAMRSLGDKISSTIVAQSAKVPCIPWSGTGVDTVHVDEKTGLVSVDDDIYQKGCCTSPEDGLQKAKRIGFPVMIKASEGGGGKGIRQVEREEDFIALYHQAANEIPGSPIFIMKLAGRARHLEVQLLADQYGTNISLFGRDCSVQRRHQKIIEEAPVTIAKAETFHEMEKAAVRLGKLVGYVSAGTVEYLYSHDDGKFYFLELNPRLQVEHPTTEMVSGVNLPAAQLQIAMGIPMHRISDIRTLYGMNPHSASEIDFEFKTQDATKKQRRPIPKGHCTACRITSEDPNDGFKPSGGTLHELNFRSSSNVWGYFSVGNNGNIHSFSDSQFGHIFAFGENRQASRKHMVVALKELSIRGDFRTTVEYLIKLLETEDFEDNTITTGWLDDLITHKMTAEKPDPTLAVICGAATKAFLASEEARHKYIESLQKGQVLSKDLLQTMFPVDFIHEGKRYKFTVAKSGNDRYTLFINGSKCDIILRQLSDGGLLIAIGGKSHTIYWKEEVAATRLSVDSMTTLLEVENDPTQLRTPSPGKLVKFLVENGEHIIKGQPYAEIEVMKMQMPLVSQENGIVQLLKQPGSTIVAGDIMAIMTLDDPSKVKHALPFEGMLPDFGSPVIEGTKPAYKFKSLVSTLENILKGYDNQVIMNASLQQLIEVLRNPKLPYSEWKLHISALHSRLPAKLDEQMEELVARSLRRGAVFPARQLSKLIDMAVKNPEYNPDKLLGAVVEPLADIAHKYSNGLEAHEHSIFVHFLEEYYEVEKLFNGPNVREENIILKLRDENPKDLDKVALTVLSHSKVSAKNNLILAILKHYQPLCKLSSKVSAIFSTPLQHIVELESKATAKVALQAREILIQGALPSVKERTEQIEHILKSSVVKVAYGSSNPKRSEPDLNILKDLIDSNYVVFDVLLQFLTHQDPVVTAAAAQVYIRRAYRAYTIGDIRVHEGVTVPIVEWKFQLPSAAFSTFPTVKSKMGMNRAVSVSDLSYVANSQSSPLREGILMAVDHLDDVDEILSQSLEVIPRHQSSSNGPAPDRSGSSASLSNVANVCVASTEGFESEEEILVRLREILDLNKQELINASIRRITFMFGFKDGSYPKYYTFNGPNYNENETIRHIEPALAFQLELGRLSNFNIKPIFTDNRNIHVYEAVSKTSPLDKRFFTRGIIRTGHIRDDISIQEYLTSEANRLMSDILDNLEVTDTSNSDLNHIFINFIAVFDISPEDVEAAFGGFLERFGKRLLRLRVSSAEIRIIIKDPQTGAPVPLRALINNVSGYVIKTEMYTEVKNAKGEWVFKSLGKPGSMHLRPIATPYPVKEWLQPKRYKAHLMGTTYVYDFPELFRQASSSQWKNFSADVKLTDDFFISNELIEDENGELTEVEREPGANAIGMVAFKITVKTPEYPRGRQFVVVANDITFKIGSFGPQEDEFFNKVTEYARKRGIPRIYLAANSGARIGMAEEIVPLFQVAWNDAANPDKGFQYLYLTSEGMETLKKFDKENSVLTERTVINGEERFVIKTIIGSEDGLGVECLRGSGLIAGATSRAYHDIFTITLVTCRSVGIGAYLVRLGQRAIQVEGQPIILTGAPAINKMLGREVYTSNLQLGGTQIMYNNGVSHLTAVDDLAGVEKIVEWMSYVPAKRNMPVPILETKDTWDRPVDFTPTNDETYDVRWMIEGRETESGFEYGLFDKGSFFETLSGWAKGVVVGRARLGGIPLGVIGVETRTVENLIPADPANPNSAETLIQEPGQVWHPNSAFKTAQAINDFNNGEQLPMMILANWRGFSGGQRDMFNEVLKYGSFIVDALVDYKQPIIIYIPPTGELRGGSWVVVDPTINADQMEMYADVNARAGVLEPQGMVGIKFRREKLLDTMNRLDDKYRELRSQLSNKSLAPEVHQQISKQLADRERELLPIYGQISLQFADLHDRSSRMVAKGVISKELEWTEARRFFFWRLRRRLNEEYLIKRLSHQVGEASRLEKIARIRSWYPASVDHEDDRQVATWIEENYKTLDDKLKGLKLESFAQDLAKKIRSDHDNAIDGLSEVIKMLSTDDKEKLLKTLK
hACC2, sequence (O00763 whole entry): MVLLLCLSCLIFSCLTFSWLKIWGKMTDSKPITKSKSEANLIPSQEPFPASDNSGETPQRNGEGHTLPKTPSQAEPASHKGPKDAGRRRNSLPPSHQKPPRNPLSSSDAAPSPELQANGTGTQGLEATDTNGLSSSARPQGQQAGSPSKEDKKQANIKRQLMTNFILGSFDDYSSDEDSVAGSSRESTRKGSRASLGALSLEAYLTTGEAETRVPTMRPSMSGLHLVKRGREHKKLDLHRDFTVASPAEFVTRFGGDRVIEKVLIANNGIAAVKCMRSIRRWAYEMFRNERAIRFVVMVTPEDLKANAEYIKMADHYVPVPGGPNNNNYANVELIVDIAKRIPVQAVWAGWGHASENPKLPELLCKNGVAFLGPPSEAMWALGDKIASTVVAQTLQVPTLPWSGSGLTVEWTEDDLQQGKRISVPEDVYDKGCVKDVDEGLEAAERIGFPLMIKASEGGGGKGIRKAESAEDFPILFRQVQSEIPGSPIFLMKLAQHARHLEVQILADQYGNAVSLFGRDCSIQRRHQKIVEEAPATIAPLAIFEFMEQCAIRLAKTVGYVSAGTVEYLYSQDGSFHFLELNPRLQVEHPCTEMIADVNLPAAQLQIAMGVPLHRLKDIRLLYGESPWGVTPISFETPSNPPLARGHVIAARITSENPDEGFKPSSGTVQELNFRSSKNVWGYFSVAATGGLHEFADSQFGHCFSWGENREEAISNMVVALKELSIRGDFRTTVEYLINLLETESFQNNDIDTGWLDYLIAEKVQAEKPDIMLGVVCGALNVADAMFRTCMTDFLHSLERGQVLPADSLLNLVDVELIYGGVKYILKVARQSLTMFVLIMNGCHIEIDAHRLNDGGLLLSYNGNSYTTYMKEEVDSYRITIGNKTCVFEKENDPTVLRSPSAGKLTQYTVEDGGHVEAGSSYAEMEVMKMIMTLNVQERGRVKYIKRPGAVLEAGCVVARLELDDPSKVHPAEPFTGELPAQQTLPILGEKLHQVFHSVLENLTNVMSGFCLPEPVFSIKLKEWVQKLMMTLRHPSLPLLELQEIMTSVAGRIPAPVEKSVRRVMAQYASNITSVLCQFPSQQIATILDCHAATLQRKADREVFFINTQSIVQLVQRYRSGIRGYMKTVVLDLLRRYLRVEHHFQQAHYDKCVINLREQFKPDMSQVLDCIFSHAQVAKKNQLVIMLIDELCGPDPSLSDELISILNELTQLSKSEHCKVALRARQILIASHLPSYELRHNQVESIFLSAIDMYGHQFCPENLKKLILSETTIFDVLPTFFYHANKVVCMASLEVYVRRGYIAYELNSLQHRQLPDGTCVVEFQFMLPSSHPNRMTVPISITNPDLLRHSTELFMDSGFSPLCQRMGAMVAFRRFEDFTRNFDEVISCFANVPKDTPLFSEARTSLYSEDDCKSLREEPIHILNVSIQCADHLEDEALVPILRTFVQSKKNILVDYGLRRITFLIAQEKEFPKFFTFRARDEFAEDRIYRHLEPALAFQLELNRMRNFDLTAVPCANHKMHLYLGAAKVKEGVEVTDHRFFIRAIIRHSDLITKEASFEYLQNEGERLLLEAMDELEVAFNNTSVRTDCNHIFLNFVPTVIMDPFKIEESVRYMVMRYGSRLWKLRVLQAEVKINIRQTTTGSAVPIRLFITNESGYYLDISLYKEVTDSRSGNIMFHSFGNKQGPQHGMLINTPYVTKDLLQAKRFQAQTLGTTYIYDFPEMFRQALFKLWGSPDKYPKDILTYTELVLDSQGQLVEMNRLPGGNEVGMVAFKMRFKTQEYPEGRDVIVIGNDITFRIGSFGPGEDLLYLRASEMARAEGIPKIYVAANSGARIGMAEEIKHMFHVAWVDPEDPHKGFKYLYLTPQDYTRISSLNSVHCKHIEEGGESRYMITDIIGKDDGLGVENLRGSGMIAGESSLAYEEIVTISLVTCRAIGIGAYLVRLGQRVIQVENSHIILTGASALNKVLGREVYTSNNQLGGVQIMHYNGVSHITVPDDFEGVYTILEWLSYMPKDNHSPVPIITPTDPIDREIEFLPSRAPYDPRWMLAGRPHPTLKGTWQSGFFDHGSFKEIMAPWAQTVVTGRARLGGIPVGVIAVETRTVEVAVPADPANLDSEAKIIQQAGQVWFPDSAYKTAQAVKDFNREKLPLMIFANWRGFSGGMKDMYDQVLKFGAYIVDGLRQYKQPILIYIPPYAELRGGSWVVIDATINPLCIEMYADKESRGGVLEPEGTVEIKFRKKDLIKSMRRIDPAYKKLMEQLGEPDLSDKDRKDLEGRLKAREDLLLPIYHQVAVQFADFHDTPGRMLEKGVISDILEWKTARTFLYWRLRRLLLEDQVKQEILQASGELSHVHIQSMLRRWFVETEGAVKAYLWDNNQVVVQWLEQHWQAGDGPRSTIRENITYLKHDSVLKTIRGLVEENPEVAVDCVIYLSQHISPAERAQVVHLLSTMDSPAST

On to `CCOC(=O)c1sc2c(c1C)c(=O)n([C@H](C)C(=O)N1CCCC1)c(=O)n2C[C@H](OCCC#N)c1cc(F)ccc1OC` [Compound I-24, ethyl 1-((R)-2-(2-cyanoethoxy)-2-(5-fluoro-2-methoxy-phenyl)ethyl)-5-methyl-2,4-dioxo-3-((R)-1-oxo-1-(pyrrolidin-1-yl)propan-2-yl)-1,2,3,4-tetrahydrothieno[2,3-d]pyrimidine-6-carboxylate], for which the MIC against C. krusei ATCC 6258 was 2.1 to 4 µg/mL (≈ 3.5 to 6.66 µM). For the same compound, the pIC50 on hACC2 was 8.00 to 8.52; at fACC2 it was 8.52 to 9.52.

As to `CCOC(=O)c1sc2c(c1C)c(=O)n([C@@H](C)C(N)=O)c(=O)n2C[C@H](OCCC#N)c1cc(F)ccc1OC` [Compound I-25, ethyl 3-((S)-1-amino-1-oxopropan-2-yl)-1-((R)-2-(2-cyanoethoxy)-2-(5-fluoro-2-methoxyphenyl)ethyl)-5-methyl-2,4-dioxo-1,2,3,4-tetrahydrothieno[2,3-d]pyrimidine-6-carboxylate], the MIC against C. krusei ATCC 6258 lay in the range of 1.1 to 2 µg/mL (≈ 2.01 to 3.66 µM). In addition, the values for the pIC50 on hACC2 and on fACC2 were 8.00 to 8.52 and 8.52 to 9.52, respectively.

With `CCOC(=O)c1sc2c(c1C)c(=O)n([C@H](C)C(N)=O)c(=O)n2C[C@H](OCCC#N)c1cc(F)ccc1OC` [Compound I-26, ethyl 3-((R)-1-amino-1-oxopropan-2-yl)-1-((R)-2-(2-cyanoethoxy)-2-(5-fluoro-2-methoxyphenyl)ethyl)-5-methyl-2,4-dioxo-1,2,3,4-tetrahydrothieno[2,3-d]pyrimidine-6-carboxylate], the MIC in the experiment on C. krusei ATCC 6258 is 0.25 to 1 µg/mL (≈ 0.457 to 1.83 µM). The results for the pIC50 against hACC2 and against fACC2 were 8.00 to 8.52 and 8.52 to 9.52, respectively.

Compound `CCOC(=O)c1sc2c(c1C)c(=O)n([C@H](C)C(=O)N(C)C(C)C)c(=O)n2C[C@H](OCCC#N)c1cc(F)ccc1OC` [Compound I-27, ethyl 1-((R)-2-(2-cyanoethoxy)-2-(5-fluoro-2-methoxy-phenyl)ethyl)-3-((R)-1-(isopropyl(methyl)amino)-1-oxopropan-2-yl)-5-methyl-2,4-dioxo-1,2,3,4-tetrahydrothieno[2,3-d]pyrimidine-6-carboxylate] showed an MIC against C. krusei ATCC 6258 of 0.25 to 1 µg/mL (≈ 0.415 to 1.66 µM). For the same compound, the pIC50 against hACC2 and at fACC2 was 8.52 to 9.52 in each case.

In turn, `CCOC(=O)c1sc2c(c1C)c(=O)n([C@@H](C)C(=O)N(C)C(C)C)c(=O)n2C[C@H](OCCC#N)c1cc(F)ccc1OC` [Compound I-28, ethyl 1-((R)-2-(2-cyanoethoxy)-2-(5-fluoro-2-methoxy-phenyl)-ethyl)-3-((S)-1-(isopropyl(methyl)amino)-1-oxopropan-2-yl)-5-methyl-2,4-dioxo-1,2,3,4-tetrahydrothieno[2,3-d]pyrimidine-6-carboxylate] showed an MIC against C. krusei ATCC 6258 of 0.25 to 1 µg/mL (≈ 0.415 to 1.66 µM). Moreover, the pIC50 against hACC2 is 8.00 to 8.52; against fACC2, 8.52 to 9.52.

As for `CCNC(=O)C(C)(C)n1c(=O)c2c(C)c(C(=O)OCC)sc2n(C[C@H](OCCC#N)c2cc(F)ccc2OC)c1=O` [Compound I-29, (R)-ethyl 1-(2-(2-cyanoethoxy)-2-(5-fluoro-2-methoxy-phenyl)ethyl)-3-(1-(ethylamino)-2-methyl-1-oxopropan-2-yl)-5-methyl-2,4-dioxo-1,2,3,4-tetrahydrothieno[2,3-d]pyrimidine-6-carboxylate], the minimal inhibitory concentration (MIC) against C. krusei ATCC 6258 lay within 2.1 to 4 µg/mL (≈ 3.57 to 6.8 µM). Besides, the pIC50 against hACC2 is 8.00 to 8.52; at fACC2 it was 8.52 to 9.52.

With `CCOC(=O)c1sc2c(c1C)c(=O)n(C(C)(C)C(=O)NC(C)C)c(=O)n2C[C@H](OCCC#N)c1ccccc1OC` [Compound I-31, ethyl (R)-1-(2-(2-cyanoethoxy)-2-(2-methoxyphenyl)ethyl)-3-(1-(isopropylamino)-2-methyl-1-oxopropan-2-yl)-5-methyl-2,4-dioxo-1,2,3,4-tetrahydrothieno[2,3-d]pyrimidine-6-carboxylate], the MIC in the experiment on C. krusei ATCC 6258 is 0.25 to 1 µg/mL (≈ 0.428 to 1.71 µM). In addition, the pIC50 against hACC2 was 8.00 to 8.52; at fACC2, 8.52 to 9.52.

As to `CCNC(=O)C(C)(C)n1c(=O)c2c(C)c(C(=O)OCC)sc2n(C[C@H](OCCC#N)c2ccccc2OC)c1=O` [Compound I-32, ethyl (R)-1-(2-(2-cyanoethoxy)-2-(2-methoxyphenyl)ethyl)-3-(1-(ethylamino)-2-methyl-1-oxopropan-2-yl)-5-methyl-2,4-dioxo-1,2,3,4-tetrahydrothieno[2,3-d]pyrimidine-6-carboxylate], the minimal inhibitory concentration (MIC) in the experiment on C. krusei ATCC 6258 lay within 0.25 to 1 µg/mL (≈ 0.438 to 1.75 µM). Also, the pIC50 at hACC2 was 8.00 to 8.52; against fACC2, 8.52 to 9.52.

`CCOC(=O)c1sc2c(c1C)c(=O)n(C(C)(C)C(=O)NC(C)C)c(=O)n2C[C@H](OCC#N)c1cc(F)ccc1OC` [Compound I-33, ethyl (R)-1-(2-(cyanomethoxy)-2-(5-fluoro-2-methoxy-phenyl)ethyl)-3-(1-(isopropylamino)-2-methyl-1-oxopropan-2-yl)-5-methyl-2,4-dioxo-1,2,3,4-tetrahydrothieno[2,3-d]pyrimidine-6-carboxylate] gave an MIC in the experiment on C. krusei ATCC 6258 of 2.1 to 4 µg/mL (≈ 3.57 to 6.8 µM). The pIC50 was 8.00 to 8.52 against hACC2 and 8.52 to 9.52 against fACC2.

Consider `CCOC(=O)c1sc2c(c1C)c(=O)n(C(C)(C)C(=O)NC(C)C)c(=O)n2C[C@H](OC[C@H](C)C#N)c1cc(F)ccc1OC` [Compound I-34, ethyl 1-((R)-2-((R)-2-cyanopropoxy)-2-(5-fluoro-2-methoxyphenyl)ethyl)-3-(1-(isopropylamino)-2-methyl-1-oxopropan-2-yl)-5-methyl-2,4-dioxo-1,2,3,4-tetrahydrothieno[2,3-d]pyrimidine-6-carboxylate], for which the MIC against C. krusei ATCC 6258 is 2.1 to 4 µg/mL (≈ 3.41 to 6.49 µM). Moreover, the pIC50 on hACC2 was 7.40 to 8.00; on fACC2, 8.52 to 9.52.

With `CCOC(=O)c1sc2c(c1C)c(=O)n(C(C)(C)C(=O)NC(C)C)c(=O)n2C[C@H](OC[C@@H](C)C#N)c1cc(F)ccc1OC` [Compound I-35, ethyl 1-((R)-2-((S)-2-cyanopropoxy)-2-(5-fluoro-2-methoxyphenyl)ethyl)-3-(1-(isopropylamino)-2-methyl-1-oxopropan-2-yl)-5-methyl-2,4-dioxo-1,2,3,4-tetrahydrothieno[2,3-d]pyrimidine-6-carboxylate], the MIC against C. krusei ATCC 6258 was in the range of 2.1 to 4 µg/mL (≈ 3.41 to 6.49 µM). The pIC50 against hACC2 was 8.00 to 8.52; against fACC2 it was 8.52 to 9.52.

`CCOC(=O)c1sc2c(c1C)c(=O)n(C(C)(C)C(=O)NC(C)C)c(=O)n2C[C@H](OCCS(C)(=O)=O)c1cc(F)ccc1OC` [Compound I-36, ethyl (R)-1-(2-(5-fluoro-2-methoxyphenyl)-2-(2-(methylsulfonyl)ethoxy)ethyl)-3-(1-(isopropylamino)-2-methyl-1-oxopropan-2-yl)-5-methyl-2,4-dioxo-1,2,3,4-tetrahydrothieno[2,3-d]pyrimidine-6-carboxylate] yielded an MIC with C. krusei ATCC 6258 of 2.1 to 4 µg/mL (≈ 3.2 to 6.1 µM). In addition, the pIC50 against hACC2 is 7.40 to 8.00; against fACC2, 8.52 to 9.52.

Take `CCOC(=O)c1sc2c(c1C)c(=O)n(C(C)(C)C(=O)NC(C)C)c(=O)n2C[C@H](OCC(C)(C)C#N)c1cc(F)ccc1OC` [Compound I-37, ethyl (R)-1-(2-(2-cyano-2-methylpropoxy)-2-(5-fluoro-2-methoxyphenyl)ethyl)-3-(1-(isopropylamino)-2-methyl-1-oxopropan-2-yl)-5-methyl-2,4-dioxo-1,2,3,4-tetrahydrothieno[2,3-d]pyrimidine-6-carboxylate]: in the experiment on C. krusei ATCC 6258, the MIC fell in the range of 2.1 to 4 µg/mL (≈ 3.33 to 6.34 µM). Also, the pIC50 against hACC2 is 7.40 to 8.00; against fACC2, 8.52 to 9.52.

As usually defined, the MIC is the smallest concentration in the dilution series that meets the test's criterion for growth inhibition. Lower therefore signals a more susceptible organism. Broadly, the pIC50 is the IC50 on a negative log10 scale, so that one unit is a factor of ten.
